Results published in ChEMBL document CHEMBL1156377, “New cytotoxic N-methylated beta-carboline alkaloids from the marine ascidian Eudistoma gilboverde” (J Nat Prod, 2001).
In brackets after ≈: the same amount, converted by molar mass.

Assays:
Assay type in all cases: functional, cell-based
[1] = Cytotoxicity against human LOX cells after 2 days; settings: 48 h
OVCAR-3 = experiment: Cytotoxicity against human OVCAR-3 cells after 2 days; settings: OVCAR-3, 48 h
COLO 205 = experiment: Cytotoxicity against human COLO205 cells after 2 days; settings: COLO 205, 48 h
MOLT-4 = experiment: Cytotoxicity against human MOLT4 cells after 2 days; settings: MOLT-4, 48 h

| Compound | IC50 [1] [µg/mL] | IC50 (OVCAR-3) [µg/mL] | IC50 (COLO 205) [µg/mL] | IC50 (MOLT-4) [µg/mL] |
| --- | --- | --- | --- | --- |
| C[n+]1ccc2c(c1)[nH]c1ccc(O)c(Br)c12.[Cl-] | 15 | 20 | 19.1 | 16.6 |
| CSC[C@H](c1nccc2c1[nH]c1ccc(O)c(Br)c12)N(C)C | 0.41 (≈ 1.08 µM) | 0.98 (≈ 2.58 µM) | 0.42 (≈ 1.1 µM) | 0.57 (≈ 1.5 µM) |
| C[n+]1ccc2c(c1)[nH]c1cc(Br)c(O)cc12.[Cl-] | 15.1 | 20 | 15.1 | 17.5 |
